Assay results published in ChEMBL document CHEMBL1201862, “PubChem BioAssay data set” (2004).
The source made the active and inactive calls. For most assays here, no stated cut-off is given here; in the data, actives have a measured EC50 and inactives only a lower limit.

Columns and labels:
Vero [1] = assay: mammalian cell viability reduction – secondary assay, cytotoxicity control for West Nile virus antiviral project, dose response (AID 1650); type: functional; conditions: Chlorocebus sabaeus
[2] = Luminescence Cell-Based Dose Retest to Confirm Inhibitors of Cancer Stem Cells. [Related pubchem assays (depositor defined):AID2717, AID2721]; type: functional; conditions: Homo sapiens
[3] = biological target: T1, Heat shock factor protein 1 (Mus musculus, UniProt P38532); assay: enhancement of HSF1-driven luciferase signal – cell-based, NIH3T3, luminescence, dose retest, confirmation (AID 435004); type: functional;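 further: stress induced by proteasome inhibitor MG132 added 30 min after compound; luciferase reporter driven by HSF1 response element in NIH3T3 cells; actives raise luminescence as potentiators of the MG132 stress response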
T1 sequence (P38532 whole entry): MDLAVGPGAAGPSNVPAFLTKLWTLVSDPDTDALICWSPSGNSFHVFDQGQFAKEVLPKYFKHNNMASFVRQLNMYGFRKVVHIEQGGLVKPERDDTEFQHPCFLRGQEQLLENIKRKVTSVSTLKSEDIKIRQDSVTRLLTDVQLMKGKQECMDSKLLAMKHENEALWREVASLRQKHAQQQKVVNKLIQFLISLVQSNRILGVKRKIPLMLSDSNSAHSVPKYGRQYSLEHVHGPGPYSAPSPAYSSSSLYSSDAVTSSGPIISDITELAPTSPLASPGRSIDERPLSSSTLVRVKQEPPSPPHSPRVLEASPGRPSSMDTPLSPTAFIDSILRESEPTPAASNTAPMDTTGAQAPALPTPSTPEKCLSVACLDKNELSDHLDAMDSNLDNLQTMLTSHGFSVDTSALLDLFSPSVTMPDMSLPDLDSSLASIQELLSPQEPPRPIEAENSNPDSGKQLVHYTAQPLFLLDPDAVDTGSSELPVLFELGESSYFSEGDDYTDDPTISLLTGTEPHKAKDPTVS

[4] = biological target: T2, Replicative DNA helicase DnaB (Mycobacterium tuberculosis, UniProt P9WMR3); assay: DnaB intein splicing inhibitors, dose response, biochemical, cell-free fluorescence (AID 449749); type: functional
T2 sequence (P9WMR3 whole entry): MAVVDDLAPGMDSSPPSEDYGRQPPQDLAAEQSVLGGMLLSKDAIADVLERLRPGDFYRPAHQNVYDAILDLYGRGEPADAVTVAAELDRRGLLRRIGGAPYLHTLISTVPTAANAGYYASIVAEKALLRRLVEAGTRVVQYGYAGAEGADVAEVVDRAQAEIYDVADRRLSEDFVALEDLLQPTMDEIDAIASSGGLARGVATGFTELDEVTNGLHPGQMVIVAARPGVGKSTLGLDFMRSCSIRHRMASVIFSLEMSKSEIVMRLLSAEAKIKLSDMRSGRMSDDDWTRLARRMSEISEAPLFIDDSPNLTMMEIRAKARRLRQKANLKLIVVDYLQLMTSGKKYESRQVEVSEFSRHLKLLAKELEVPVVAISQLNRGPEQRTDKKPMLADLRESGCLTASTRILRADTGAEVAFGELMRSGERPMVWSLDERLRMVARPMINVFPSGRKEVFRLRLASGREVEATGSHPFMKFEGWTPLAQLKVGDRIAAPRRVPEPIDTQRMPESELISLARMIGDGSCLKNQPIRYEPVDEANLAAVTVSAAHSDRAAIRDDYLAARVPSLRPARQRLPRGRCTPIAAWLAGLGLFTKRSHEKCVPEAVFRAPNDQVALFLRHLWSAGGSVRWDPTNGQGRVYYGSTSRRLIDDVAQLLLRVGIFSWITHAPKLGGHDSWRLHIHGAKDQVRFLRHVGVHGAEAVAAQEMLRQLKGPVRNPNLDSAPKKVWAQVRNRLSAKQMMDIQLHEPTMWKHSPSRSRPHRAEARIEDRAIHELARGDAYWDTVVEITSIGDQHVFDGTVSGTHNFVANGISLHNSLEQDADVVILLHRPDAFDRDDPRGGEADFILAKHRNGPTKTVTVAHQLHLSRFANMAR

Protein RecA = biological target: T3, Protein RecA (Mycobacterium tuberculosis, UniProt P9WHJ3); assay: Fluorescence Cell-Free Homogeneous Dose Retest to Identify Inhibitors of RecA-Intein Splicing Activity. [Related pubchem assays (depositor defined):AID2097, AID2223, AID489010, AID492950]; type: functional
T3 sequence (P9WHJ3 whole entry): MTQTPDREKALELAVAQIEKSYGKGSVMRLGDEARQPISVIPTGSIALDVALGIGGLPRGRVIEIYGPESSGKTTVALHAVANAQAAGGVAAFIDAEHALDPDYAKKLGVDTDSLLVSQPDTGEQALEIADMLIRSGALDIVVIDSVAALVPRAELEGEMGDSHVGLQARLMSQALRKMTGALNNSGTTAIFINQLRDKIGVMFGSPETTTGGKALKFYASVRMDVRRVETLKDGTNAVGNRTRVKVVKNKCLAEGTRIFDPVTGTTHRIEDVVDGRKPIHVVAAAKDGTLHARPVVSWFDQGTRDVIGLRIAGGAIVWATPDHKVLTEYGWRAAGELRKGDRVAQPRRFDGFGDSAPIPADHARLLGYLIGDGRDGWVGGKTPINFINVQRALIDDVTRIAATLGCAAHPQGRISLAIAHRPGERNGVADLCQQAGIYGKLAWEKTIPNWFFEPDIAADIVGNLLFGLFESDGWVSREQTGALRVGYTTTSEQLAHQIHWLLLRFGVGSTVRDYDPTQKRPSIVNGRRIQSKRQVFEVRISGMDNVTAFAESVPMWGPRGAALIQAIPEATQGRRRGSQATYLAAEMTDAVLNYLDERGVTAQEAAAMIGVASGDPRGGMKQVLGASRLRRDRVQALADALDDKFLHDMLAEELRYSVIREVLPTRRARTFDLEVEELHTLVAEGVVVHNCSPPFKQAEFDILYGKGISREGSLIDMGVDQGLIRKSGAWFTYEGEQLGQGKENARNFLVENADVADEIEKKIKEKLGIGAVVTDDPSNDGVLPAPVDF

[5] = NIH-3T3 fibroblast cytotoxicity, dose response, cytotoxicity control, cell-based, fluorescence, Alamar Blue, secondary assay (AID 2327); type: functional;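 further: NIH-3T3 mouse fibroblasts cultured with fluconazole at 8 µg/mL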
[6] = fluconazole-exposed Candida albicans growth modulators – fluorescence, retest, confirmation (AID 2467); type: functional, cell-based
[7] = mitochondrial function rescue without frataxin homolog – Friedreich's ataxia, plus single-dose screen, dose response (AID 1465); type: functional;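 further: yeast depleted of Yfh1p frataxin homolog grown on glycerol needing respiration; WST-1 tetrazolium dye reduction as measure of cellular dehydrogenase metabolic activity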
Troponin, cardiac muscle = Troponin, cardiac muscle (Homo sapiens, UniProt P19429+P45379+P63316); assay: Fluorescence-based biochemical high throughput dose response assay for activators of the calcium sensitivity of cardiac Regulated Thin Filaments (RTF). [Related pubchem assays (depositor defined):AID493008, AID493018, AID504382, AID504383]; type: protein-complex assay
NS3 = NS3 (Hepatitis C virus, UniProt A3EZJ3); assay: PubChem AID 2173; set-up: species or system Hepacivirus hominis
[8] = biological target: Induced myeloid leukemia cell differentiation protein Mcl-1 (Homo sapiens, UniProt Q07820); type: functional
Vero [9] = assay: viability of Vero cells under compound – cytotoxicity control for flavivirus capping enzyme inhibitors (AID 588742); type: functional; conditions: Chlorocebus sabaeus
Vero [10] = assay: cells; type: functional, cell-based; conditions: Chlorocebus sabaeus
Vero [11] = assay: cells; type: functional; conditions: Chlorocebus sabaeus
[12] = luciferase reporter signal suppression in cells – H4 neuroglioma cells, luminescence, dose response (AID 1990); type: functional, cell-based
[13] = Luminescence Cell-Based Dose Response HTS to Identify Inhibitors of 5'UTR Stem-Loop Driven Prion Protein mRNA Translation in H4 Neuroglioblastoma Cells. [Related pubchem assays: 1827 (Project Summary), 1813 (Primary HTS)]; type: functional
[14] = alpha-synuclein stem-loop luciferase translation blockers – H4 neuroglioma cells, luminescence, confirmation (AID 1988); type: functional, cell-based
[15] = Luminescence Cell-Based Dose Response to Identify Activators of 5'UTR Stem-Loop Driven Prion Protein mRNA Translation in H4-C Neuroglioblastoma Cells. [Related pubchem assays: 1829 (Project Summary), 1814 (Primary HTS)]; type: functional
[16] = Luminescence Cell-Based Dose Confirmation HTS to Identify Activators of 5'UTR Stem-Loop Driven Alpha-Synuclein mRNA Translation in H4 Neuroglioblastoma Cells. [Related pubchem assays: 1829 (Project Summary), 1814 (Primary HTS)]; type: functional
[17] = Luminescence Cell-Based Dose Response HTS to Identify Activators of Luciferase Translation or Activity in H4 […] Cells. [Related pubchem assays: 1829 (Project Summary), 1814 (Primary HTS)]; type: functional
H4 = assay: Luminescence Cell-Based Dose Response HTS to Identify Activators of 5'UTR Stem-Loop Driven Prion Protein mRNA Translation in H4 Neuroglioblastoma Cells. [Related pubchem assays: 1829 (Project Summary), 1814 (Primary HTS)]; type: functional; conditions: Homo sapiens
[18] = Luminescence Cell-Based Dose Response to Identify Activators of Luciferase Translation or Activity in H4-C Neuroglioblastoma Cells. [Related pubchem assays: 1829 (Project Summary), 1814 (Primary HTS)]; type: functional
[19] = microbe, parasite or virus in culture; type: functional; conditions: Mycobacterium tuberculosis
[20] = Luminescence Cell-Based Dose Confirmation to Identify Activators of 5'UTR Stem-Loop Driven Alpha-Synuclein mRNA Translation in H4 Neuroglioblastoma Cells. [Related pubchem assays: 1829 (Project Summary), 1814 (Primary HTS)]; type: functional
[21] = biological target: T1, Heat shock factor protein 1; assay: decrease of HSF1-responsive luciferase luminescence – cell-based, NIH3T3, dose retest, confirmation (AID 2382); type: functional;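 further: NIH3T3 fibroblasts with HSF1-driven luciferase reporter stressed by proteasome inhibitor MG132; luminescence from HSF1-driven luciferase expression after 8 hours of MG132 stress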
[22] = biological target: Sphingosine 1-phosphate receptor 4 (Homo sapiens, UniProt O95977); assay: Fluorescence dose response cell-based high throughput screening assay for antagonists of the Sphingosine 1-Phosphate Receptor 4 (S1P4). [Related pubchem assays: 1524 (Confirmation in triplicates.), 1510 (Primary screen.)]; type: functional
[23] = biological target: Sphingosine 1-phosphate receptor 1 (Homo sapiens, UniProt P21453); type: functional;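 further: Tango beta-arrestin reporter U2OS cells stimulated with S1P near its EC80; inhibitor potency meaning antagonism of receptor activation by the natural agonist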
BJ = assay: growth inhibition of engineered Ras-driven BJ cells – cell-based, alamar blue fluorescence, cherrypicked samples, dose response (AID 2631); type: functional; conditions: Homo sapiens;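 further: confirmatory dose-response assay in RAS-dependent BJ fibroblasts engineered with TERT, LT and ST, with cytotoxicity read by fluorescence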
[24] = system: Streptococcus sp. 'group A'; assay: Streptococcus pyogenes SK(-)GAS viability under kanamycin – luminescence, BacTiterGlo, confirmation, counter-screen for streptokinase expression inhibitor project, dose response (AID 1900); type: functional, organism-based
Streptokinase A = biological target: T4, Streptokinase A (Streptococcus pyogenes serotype M1, UniProt P10520); assay: viability-normalized secreted streptokinase activity reduction – plasminogen activation absorbance, OD405, dose response (AID 1914); type: functional, Streptococcus pyogenes M1 GAS;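 further: secreted streptokinase activity via plasminogen activation per viability signal from cell pellet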
T4 sequence (P10520 whole entry): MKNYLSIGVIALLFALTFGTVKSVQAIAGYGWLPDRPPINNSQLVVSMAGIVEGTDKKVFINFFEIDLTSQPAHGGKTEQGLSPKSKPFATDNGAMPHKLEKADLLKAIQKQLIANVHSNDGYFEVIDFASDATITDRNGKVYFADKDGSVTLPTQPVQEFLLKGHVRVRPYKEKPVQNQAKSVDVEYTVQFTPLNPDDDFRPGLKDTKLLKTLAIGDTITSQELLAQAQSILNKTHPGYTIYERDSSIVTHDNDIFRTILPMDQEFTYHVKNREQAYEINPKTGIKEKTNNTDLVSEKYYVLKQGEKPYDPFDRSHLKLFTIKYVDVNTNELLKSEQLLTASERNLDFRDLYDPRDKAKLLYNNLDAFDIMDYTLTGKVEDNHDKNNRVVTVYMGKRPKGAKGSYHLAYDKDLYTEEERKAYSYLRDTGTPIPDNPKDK

Streptococcus = assay: GAS UMAA2166 growth inhibition – luminescence, BacTiterGlo, counter-screen for streptokinase expression inhibitor project, dose response (AID 1915); type: functional, organism-based;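 further: potency for reduction of bacterial viability or growth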

COc1ccc(/C=C/C(=O)c2ccc(O)cc2)cc1COc1ccc(F)cc1
active: CC50 (Vero [1]) 33.9 µM | AC50 [2] 3.91 µM | EC50 [3] 24.3 µM
inactive: AC50 [4] > 380 µM | EC50 (Protein RecA) > 380 µM

COc1ccc(NC(=O)/C(C#N)=C\c2ccc(N3CCOCC3)o2)cc1
inactive: EC50 [5] > 160 µM
active: EC50 [6] 1.68 µM | EC50 [7] > 100 µM | EC50 (Troponin, cardiac muscle) 1.58 µM

CN=c1ccc(Br)cc(C(=O)/C=C/c2ccc(Cl)cc2Cl)c1O
active: IC50 (NS3) 8.09 µM | IC50 [8] 5.26 µM | CC50 (Vero [9]) 24.7 µM | IC50 (Vero [10]) 12.2 µM | CC50 (Vero [11]) 14.4 µM

Cn1c(=O)oc2cc(S(=O)(=O)N3CCCC(C(=O)NC4CCCc5ccccc54)C3)ccc21 (stereo not drawn)
active: EC50 [12] 13.8 µM | EC50 [13] 22.5 µM | CC50 (Vero [1]) 2.41 µM | EC50 [14] 12.9 µM

O=C(Nc1nc2ccccc2[nH]1)C12CC3CC(CC(C3)C1)C2
active: EC50 [15] 0.299 µM | EC50 [16] < 0.1 µM | EC50 [17] 0.19 µM | EC50 (H4) 0.101 µM | EC50 [18] 0.358 µM | CC50 [19] > 40 µM | EC50 [20] 0.341 µM

O=C(CCl)Nc1cc(SCC(O)CO)cc([N+](=O)[O-])c1 (stereo not drawn)
active: EC50 [21] 2.13 µM | IC50 [22] 1.31 µM | IC50 [23] 4.46 µM | EC50 (BJ) 1.05 µM

Oc1c(Cl)cc(Cl)cc1/C=N/NC(=S)NC1CC2C=CC1C2 (stereo not drawn)
active: EC50 [24] 0.333 µM | EC50 (Streptokinase A) 0.539 µM | IC50 (NS3) 8.21 µM | EC50 (Streptococcus) 1.3 µM
